Results published in PubChem BioAssay (NCI).
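These data come from cells grown in 96-well plates and exposed to compound for 48 hours at five concentrations. Abbreviation: GI50, concentration required for 50% inhibition of growth. At the TGI there is no net growth.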

How the values were obtained:
Assay in all cases: DTP human tumour cell line panel, 48 h
[1] = test system: CAKI-1 renal
[2] = test system: MDA-MB-231 breast
[3] = test system: HT29 colon
[4] = test system: NCI-H522 lung
[5] = test system: EKVX NSCLC
[6] = test system: MDA-MB-435
[7] = test system: HOP-62 NSCLC
[8] = test system: SK-MEL-5 melanoma
[9] = test system: SK-MEL-2 melanoma
[10] = test system: HS 578T breast
[11] = test system: HL-60(TB) leukemia
[12] = test system: UACC-62 melanoma
[13] = test system: U251 CNS
[14] = test system: SK-MEL-28 melanoma
[15] = test system: SF-539 CNS
[16] = test system: HCT-116 colon
[17] = test system: RXF 393 renal
[18] = test system: BT-549 breast
[19] = test system: T-47D breast
[20] = test system: NCI-H460 lung
[21] = test system: UO-31 renal
[22] = test system: SF-268 CNS
[23] = test system: SNB-19 CNS
[24] = test system: UACC-257 melanoma
[25] = test system: SK-OV-3 ovarian
[26] = test system: MOLT-4 leukemia
[27] = test system: OVCAR-8 ovarian
[28] = test system: SW-620 colon
[29] = test system: NCI/ADR-RES ovarian

SMILES: COc1ccc(-c2cc(-c3ccccc3)nc(SCCCC(=O)NO)n2)cc1OC
- GI50 [1]: 452 nM
- TGI [1]: 2830 nM
- GI50 [2]: 1560 nM
- TGI [2]: 8270 nM
- GI50 [3]: 2080 nM
- TGI [3]: 7060 nM
- GI50 [4]: 1320 nM
- TGI [4]: 5360 nM
- GI50 [5]: 1180 nM
- TGI [5]: 8600 nM
- GI50 [6]: 1740 nM
- TGI [6]: 6280 nM
- GI50 [7]: 626 nM
- TGI [7]: 3380 nM
- GI50 [8]: 631 nM
- TGI [8]: 2090 nM
- GI50 [9]: 1760 nM
- TGI [9]: 7390 nM
- GI50 [10]: 1410 nM
- TGI [10]: 9440 nM
- GI50 [11]: 3240 nM
- TGI [11]: 11700 nM
- GI50 [12]: 1060 nM
- TGI [12]: 3110 nM
- GI50 [13]: 1510 nM
- TGI [13]: 7690 nM
- GI50 [14]: 1230 nM
- TGI [14]: 3660 nM
- GI50 [15]: 1350 nM
- TGI [15]: 3380 nM
- GI50 [16]: 701 nM
- TGI [16]: 10000 nM
- GI50 [17]: 1010 nM
- TGI [17]: 2780 nM
- GI50 [18]: 3320 nM
- TGI [18]: 12400 nM
- GI50 [19]: 824 nM
- TGI [19]: 9390 nM
- GI50 [20]: 621 nM
- TGI [20]: 9810 nM
- GI50 [21]: 338 nM
- TGI [21]: 1480 nM
- GI50 [22]: 2150 nM
- TGI [22]: 5680 nM
- GI50 [23]: 2290 nM
- TGI [23]: 10900 nM
- GI50 [24]: 1430 nM
- TGI [24]: 7940 nM
- GI50 [25]: 1690 nM
- TGI [25]: 5050 nM
- GI50 [26]: 832 nM
- TGI [26]: 11400 nM
- GI50 [27]: 490 nM
- TGI [27]: 11900 nM
- GI50 [28]: 539 nM
- TGI [28]: 11300 nM
- GI50 [29]: 793 nM
